# Read-outs that look alike come from different tables or passages of the source.
# Experiments:
# [1] = target: T1, Sirt2 (Homo sapiens, UniProt Q8IXJ6); assay: Fluorescence-based Sirt2 deacetylase inhibition assay (Reaction Biology); format: biochemical; conditions: for IC50: fluorescence-based assay
# T1 construct: comprising amino acids 50–389 (C-terminal); His-tag (N); purchased Reaction Biology Corporation (Malvern, PA, USA), in-house enzyme of the contract laboratory; host or cells: E. coli
# T1 sequence (Q8IXJ6 50-389): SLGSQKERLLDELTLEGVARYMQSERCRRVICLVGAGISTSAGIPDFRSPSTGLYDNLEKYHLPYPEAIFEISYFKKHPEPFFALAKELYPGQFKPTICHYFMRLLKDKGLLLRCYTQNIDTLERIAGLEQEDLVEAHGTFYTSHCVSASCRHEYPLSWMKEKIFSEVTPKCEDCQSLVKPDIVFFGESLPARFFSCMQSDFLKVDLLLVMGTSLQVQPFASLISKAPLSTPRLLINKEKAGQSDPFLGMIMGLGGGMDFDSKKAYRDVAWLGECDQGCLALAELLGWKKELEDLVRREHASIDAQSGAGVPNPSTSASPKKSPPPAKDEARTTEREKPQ
# Description: (§1) The determination of the inhibitory potency and corresponding subtype selectivity of the synthesized hybrid candidates was performed by Reaction Biology Cooperation (Malvern, PA, USA) using a fluorescence-based assay (Table 1).
# Sirtuin assays. The biological activity of the test substances against the respective sirtuin enzymes was evaluated by means of a fluorescence-based assay performed by Reaction Biology Corporation (Malvern, PA, USA). The sirtuin enzymes used in the assays were all obtained from in-house sources at Reaction Biology Corporation (Malvern, PA, USA). […] Sirt2 is provided in a buffer containing 50 mM Tris/HCl (pH 7.5), 500 mM NaCl, 1 mM TCEP, and 10% glycerol (v/v). […] Sirt3 is supplied in 50 mM Tris/HCl (pH 7.5), 500 mM NaCl, and 10% glycerol (v/v). […] All proteins were provided in purified forms for use in the assays. […] After 2 h of incubation at 30 °C, the universal inhibitor nicotinamide was added in excess to completely stop the deacetylation reaction, followed by the addition of a protease-based developer to release 7-amino-4-methylcoumarin, resulting in characteristic fluorescence, which was measured after 1 h at 30 °C (excitation/emission = 360/460). A no-inhibitor control was implemented, serving as a reference for 100% enzyme activity. […] Three individual IC50 values per test compound were calculated from the corresponding three dilution series fluorescence data using sigmoidal curve fitting in Prism 8.0.2 (GraphPad Software, Boston, MA, USA), and these were averaged to determine the mean IC50 value along with the standard deviation. To assess the selectivity against Sirt1, Sirt3, and Sirt5, a 50 µM concentration of the test compound was tested in duplicate, and the inhibitory activity was expressed as the mean of the duplicates in percentage of enzyme activity, including standard deviation, relative to the no-inhibitor control (representative 100% enzyme activity).
# [2] = system: T2, Sirt1; assay: Fluorescence-based Sirt1 subtype selectivity assay (Reaction Biology); format: biochemical; conditions: 50 µM inhibitor, duplicate, relative to no-inhibitor control
# T2 construct: includes amino acids 1–747 (C-terminal); His-tag (N); purchased Reaction Biology Corporation (Malvern, PA, USA), in-house enzyme of the contract laboratory; host or cells: E. coli
# Description: as §1
# (§2) Sirtuin assays. The biological activity of the test substances against the respective sirtuin enzymes was evaluated by means of a fluorescence-based assay performed by Reaction Biology Corporation (Malvern, PA, USA). The sirtuin enzymes used in the assays were all obtained from in-house sources at Reaction Biology Corporation (Malvern, PA, USA). Sirt1, with accession number NM_012238, includes amino acids 1–747 (C-terminal) and is tagged with an N-terminal His-tag. Sirt1 was expressed in E. coli and purified to greater than 85% as confirmed by SDS-PAGE and is supplied as a solution in 50 mM Tris/HCl (pH 7.5), 100 mM NaCl, and 10% glycerol (v/v). Sirt2 (accession number NM_012237), comprising amino acids 50–389 (C-terminal), features an N-terminal His-tag and was expressed in E. coli and finally purified to over 90% by SDS-PAGE. Sirt2 is provided in a buffer containing 50 mM Tris/HCl (pH 7.5), 500 mM NaCl, 1 mM TCEP, and 10% glycerol (v/v). Sirt3, with accession number NM_012239.3, spans amino acids 101–399 and is tagged with an N-terminal GST and expressed in E. coli and purified to greater than 85% purity by SDS-PAGE. Sirt3 is supplied in 50 mM Tris/HCl (pH 7.5), 500 mM NaCl, and 10% glycerol (v/v). Sirt5 (accession number NM_012241), consisting of amino acids 37–310 (C-terminal) and tagged with an N-terminal His-tag, was expressed in E. coli, purified to greater than 95% purity by SDS-PAGE and delivered as a solution in 50 mM Tris/HCl (pH 7.5), 500 mM NaCl, 1 mM TCEP, and 10% glycerol (v/v). All proteins were provided in purified forms for use in the assays. The respective internal assay protocol is outlined in the following: After the test substances (dissolved in DMSO) were incubated with the desired sirtuin enzyme in assay buffer (Tris-HCl, pH = 8) for 10 min at 30 °C, a substrate mixture consisting of a 7-amino-4-methylcoumarin-linked fluorogenic peptide substrate (p53 residues 379–382) and the cofactor NAD^+ was added. After 2 h of incubation at 30 °C, the universal inhibitor nicotinamide was added in excess to completely stop the deacetylation reaction, followed by the addition of a protease-based developer to release 7-amino-4-methylcoumarin, resulting in characteristic fluorescence, which was measured after 1 h at 30 °C (excitation/emission = 360/460). A no-inhibitor control was implemented, serving as a reference for 100% enzyme activity. […] Three individual IC50 values per test compound were calculated from the corresponding three dilution series fluorescence data using sigmoidal curve fitting in Prism 8.0.2 (GraphPad Software, Boston, MA, USA), and these were averaged to determine the mean IC50 value along with the standard deviation. To assess the selectivity against Sirt1, Sirt3, and Sirt5, a 50 µM concentration of the test compound was tested in duplicate, and the inhibitory activity was expressed as the mean of the duplicates in percentage of enzyme activity, including standard deviation, relative to the no-inhibitor control (representative 100% enzyme activity).
# [3] = system: T3, Sirt3; assay: Fluorescence-based Sirt3 subtype selectivity assay (Reaction Biology); format: biochemical; conditions: 50 µM inhibitor, duplicate, relative to no-inhibitor control
# T3 construct: spans amino acids 101–399; GST (N); purchased Reaction Biology Corporation (Malvern, PA, USA), in-house enzyme of the contract laboratory; host or cells: E. coli
# Description: as §1, §2
# [4] = system: T4, Sirt5; assay: Fluorescence-based Sirt5 subtype selectivity assay (Reaction Biology); format: biochemical; conditions: 50 µM inhibitor, duplicate, relative to no-inhibitor control
# T4 construct: consisting of amino acids 37–310 (C-terminal); His-tag (N); purchased Reaction Biology Corporation (Malvern, PA, USA), in-house enzyme of the contract laboratory; host or cells: E. coli
# Description: as §1, §2
# [5] = MTT-based cell viability assay; design: species or system human; conditions: human; HL-60 cells, 24 h incubation, MTT; read-out: IC50 acute cytotoxicity
# Description: (§3) The SirReal-based Sirt2 inhibitors (FM345, FM352, FM358, FM368, RW-93, RW-95 and RW-99) were tested for potential acute cytotoxicity to human cells in an MTT-based cell viability assay. […] HL-60 cells were treated with the corresponding Sirt2 inhibitors at various concentrations and then incubated for 24 h. […] Representative cell viability results following treatment with RW-93 are shown in Figure S1 of the Supplementary Materials.
# (§4) Cell viability assay. The cytotoxicity of the Sirt2 inhibitors was determined using a colorimetric MTT assay following Mosmann’s protocol. HL-60 cells (purchased from DSMZ (German Collection of Microorganisms and Cell Cultures, Deutsche Sammlung von Mikroorganismen und Zellkulturen GmbH, Braunschweig, Germany) were cultivated in RPMI medium with 10% fetal bovine serum at 37 °C with 5% CO2 atmosphere. The cells were then seeded in a 96-well plate with a concentration of 9 x 10^4 cells/well and a well volume of 99 µL. The cells were further incubated at 37 °C with 5% CO2 atmosphere for 24 h. The cells were then treated with 1 µL solution of Sirt2 inhibitors in various concentrations, which were prepared from 10 mM or 20 mM DMSO stock solutions. Negative controls were treated with 1 µL DMSO and positive controls with 1 µL of 1% Triton-X solution. Three technical replicates were performed. After incubation for 24 h, 10 µL MTT (5.0 mg/mL in PBS) were added to each well and the cells were incubated at 37 °C with 5% CO2 atmosphere for 2 h. Then 190 µL DMSO were added to each well and the plate shaken at room temperature at 600 rpm for 1 h with light exclusion. The absorbance of the MTT metabolite formazan was measured at 570 nm using the MRX Microplate Reader (Dynex Technologies, Chantilly, VA, USA). The means of the corresponding triplicates were calculated and set in relation to the 1% DMSO negative controls. The data was processed using Prism 8.0.2 (GraphPad Software, Boston, MA, USA) software and a logarithmic sigmoidal curve fitting for the calculation of the respective IC50 values was performed.
# [6] = system: HL-60 cells; assay: MTT-based cell viability assay; design: species or system human
# Description: as §3, §4
# [7] = system: HL-60 cell line; design: method as in PMID 35441145; conditions: cited from earlier work
# [8] = rounded values, read-out: IC50 Sirt2
# [9] = mean ± SD of three dilution series, read-out: IC50 [µM] ± SD Sirt2
SMILES,"IC50 [1, 8] [µM]","IC50 [1, 9] [µM]",Residual Enzyme Activity [%] ± SD Sirt1 [2] [%],Residual Enzyme Activity [%] ± SD Sirt3 [3] [%],Residual Enzyme Activity [%] ± SD Sirt5 [4] [%],stronger Sirt2 inhibition compared to lead compound Yang_24a (fold) ([1]; ratio of Sirt2 IC50 values),"selectivity towards related subtypes Sirt1, Sirt3 and Sirt5 ([1]; Sirt2 versus Sirt1, Sirt3, Sirt5)",outperforms lead compound SirReal2 by a factor ([1]; ratio of Sirt2 IC50 values),times more potent than hybrid precursor FM358 ([1]; ratio of Sirt2 IC50 values),IC50 at 24 h [5] [nM],"changes in cell viability relative to DMSO control ([6]; HL-60 cells, MTT, up to 200 µM, three technical replicates)",acute toxicity to human cells ([6]; MTT assay),toxicity in HL-60 cell line [7]
"Cc1cc(C)nc(SCC(=O)Nc2ncc(COc3ccccc3)s2)n1 [FM345, 2-((4,6-Dimethylpyrimidin-2-yl)thio)-N-(5-(phenoxymethyl)thiazol-2-yl)acetamide]",5.3,5.29 ± 0.73,95.6 ± 2.3,78.8 ± 0.8,94.6 ± 2.3,,,,,> 50000,,,
"Cc1cc(C)nc(SCC(=O)Nc2ncc(COc3ccc(NC(=O)c4cccs4)cc3)s2)n1 [FM352, N-(4-((2-(2-((4,6-Dimethylpyrimidin-2-yl)thio)acetamido)thiazol-5-yl)methoxy)phenyl)thiophene-2-carboxamide]",0.094,0.0935 ± 0.0064,101 ± 1,75.8 ± 5.3,75.6 ± 1.1,,,,,> 50000,,,
"Cc1cc(C)nc(SCC(=O)Nc2ncc(COc3ccc(NC(=O)c4cnn(C)c4)cc3)s2)n1 [FM358, N-(4-((2-(2-((4,6-Dimethylpyrimidin-2-yl)thio)acetamido)thiazol-5-yl)methoxy)-phenyl)-1-methyl-1H-pyrazole-4-carboxamide]",0.066,0.0656 ± 0.0044,71.9 ± 0.6,62.5 ± 0.1,79.8 ± 0.6,1.2,,,,> 50000,,,
"Cc1cc(C)nc(SCC(=O)Nc2ncc(COc3cccc4ccccc34)s2)n1 [FM368, 2-((4,6-Dimethylpyrimidin-2-yl)thio)-N-(5-((naphthalen-1-yloxy)methyl)thiazol-2-yl)acetamide]",6.5,6.51 ± 0.84,88.5 ± 2.7,85.0 ± 0.5,89.1 ± 1.4,,,,,> 50000,,,
Cc1cc(C)nc(SCC(=O)Nc2ncc(Cc3cccc4ccccc34)s2)n1 [SirReal2],,,,,,,,,,,,,not toxic

# The next lines start with results.
"IC50 [1, 8] [µM]","IC50 [1, 9] [µM]",Residual Enzyme Activity [%] ± SD Sirt1 [2] [%],Residual Enzyme Activity [%] ± SD Sirt3 [3] [%],Residual Enzyme Activity [%] ± SD Sirt5 [4] [%],stronger Sirt2 inhibition compared to lead compound Yang_24a (fold) ([1]; ratio of Sirt2 IC50 values),"selectivity towards related subtypes Sirt1, Sirt3 and Sirt5 ([1]; Sirt2 versus Sirt1, Sirt3, Sirt5)",outperforms lead compound SirReal2 by a factor ([1]; ratio of Sirt2 IC50 values),times more potent than hybrid precursor FM358 ([1]; ratio of Sirt2 IC50 values),SMILES,IC50 at 24 h [5] [nM],"changes in cell viability relative to DMSO control ([6]; HL-60 cells, MTT, up to 200 µM, three technical replicates)",acute toxicity to human cells ([6]; MTT assay),toxicity in HL-60 cell line [7]
0.016,0.0155 ± 0.0007,58.2 ± 0.2,62.3 ± 1.2,53.0 ± 0.2,5,more than 3000 fold,15,more than 4,"Cc1cc(C)nc(SCC(=O)Nc2ncc(COc3ccc(NC(=O)c4cnn(C)c4)c(Br)c3)s2)n1 [RW-93, N-(2-Bromo-4-((2-(2-((4,6-dimethylpyrimidin-2-yl)thio)acetamido)thiazol-5-yl)-methoxy)phenyl)-1-methyl-1H-pyrazole-4-carboxamide]",> 50000,No signiﬁcant changes,ruled out,
0.049,0.0485 ± 0.0056,60.9 ± 0.7,64.2 ± 1.2,48.2 ± 1.8,,,,,"Cc1cc(C)nc(SCC(=O)Nc2ncc(COc3ccc(NC(=O)c4cnn(C)c4)c(I)c3)s2)n1 [RW-95, N-(4-((2-(2-((4,6-Dimethylpyrimidin-2-yl)thio)acetamido)thiazol-5-yl)methoxy)-2-iodophenyl)-1-methyl-1H-pyrazole-4-carboxamide]",> 50000,,,
,0.025 ± 0.0026,53.9 ± 0.2,56.1 ± 0.1,55.1 ± 2.0,,,,,"Cc1cc(C)nc(SCC(=O)Nc2ncc(COc3ccc(NC(=O)c4cnn(C)c4)c(Cl)c3)s2)n1 [RW-99, N-(2-Chloro-4-((2-(2-((4,6-dimethylpyrimidin-2-yl)thio)acetamido)thiazol-5-yl)methoxy)phenyl)-1-methyl-1H-pyrazole-4-carboxamide]",> 50000,,,
